Reference: patent publication US11525155B2, “Stabilisation of biological samples” (QIAGEN GmbH, priority 2013, dated 2022)
Non-standard residues stand in square brackets, D forms with d. *: point of attachment. Nle = CCCC[C@H](N)C(=O)O; Cbz = O=C(OCc1ccccc1)*; CH2F = FC*

Assays:
18S ribosomal DNA = experiment: Stabilization of extracellular nucleic acid population in whole blood, 18S rDNA qPCR (66 bp and 500 bp amplicon); format: cell-based, human; conditions: 7.2 mg/ml K2 EDTA, 3 and 6 days RT
Protocol: Blood obtained from donors was collected into 10 ml K2 EDTA tubes (BD). 4.5 ml of the respectively collected blood was mixed with 0.9 ml of different stabilization solutions (see below examples on the details of the tested stabilization solutions).
All stabilized blood samples were set up in triplicates per condition and test time point. At time point 0 (reference), immediately after mixing the stabilization solution and blood, plasma was generated and the circulating extracellular DNA was extracted. The residual stabilized blood sample was stored for three days and six days at room temperature.
As a reference control, the EDTA stabilized blood sample (collected in K2 EDTA tubes without further additives) was also stored for 3 and 6 days. […] DMAA stabilized samples as tested herein always included additionally a caspase inhibitor. No DMAA containing stabilizing solutions without caspase inhibitor were tested in the subsequent examples.
Plasma was generated from the stabilized and unstabilized (EDTA) blood samples by inverting the blood containing tubes for four times. Then, the tubes were centrifuged for 10 minutes at 1900×g at 4° C. 2.5 ml of the plasma fraction was transferred into a fresh 15 ml falcon tube and centrifuged for 10 minutes at 16.000×g at 4° C. 2 ml of the respectively cleared plasma was used for extracellular nucleic acid isolation using the QIAamp circulating nucleic acid kit (QIAGEN) according to the manufacturer's instructions.
The isolated extracellular DNA was analyzed using two different qPCR assays, targeting different fragment lengths of the 18S ribosomal DNA:
Cycle threshholds of the individual samples were translated into amount of gDNA in the eluate, according to a gDNA standard curve. The gDNA amount of the storage time points was compared to the time zero gDNA level from the same donor and is shown as fold increase in the figures. Especially the increase of the 500 bp fragment in the plasma fraction of the blood sample after storage is an indication for a lysis/destruction of white blood cells. Thus, the lower the amount of released 500 bp DNA, the better the performance of the stabilization method.
The figures corresponding to the subsequently described examples show the increase of DNA relative to time point 0 with the different stabilization solutions (fold change) using different amplicon lengths of 18S rRNA gene. Bars indicate the mean of the triplicate samples per condition and test time point.

red blood cells = experiment: Hemolysis in stabilized blood samples; format: cell-based; conditions: butanamide 0.5% (w/v) to 3.5% (w/v) in blood mixture
calpain I = target: T1, calpain I (Homo sapiens, UniProt P07384); conditions: cited from earlier work
T1 sequence (P07384 1-714): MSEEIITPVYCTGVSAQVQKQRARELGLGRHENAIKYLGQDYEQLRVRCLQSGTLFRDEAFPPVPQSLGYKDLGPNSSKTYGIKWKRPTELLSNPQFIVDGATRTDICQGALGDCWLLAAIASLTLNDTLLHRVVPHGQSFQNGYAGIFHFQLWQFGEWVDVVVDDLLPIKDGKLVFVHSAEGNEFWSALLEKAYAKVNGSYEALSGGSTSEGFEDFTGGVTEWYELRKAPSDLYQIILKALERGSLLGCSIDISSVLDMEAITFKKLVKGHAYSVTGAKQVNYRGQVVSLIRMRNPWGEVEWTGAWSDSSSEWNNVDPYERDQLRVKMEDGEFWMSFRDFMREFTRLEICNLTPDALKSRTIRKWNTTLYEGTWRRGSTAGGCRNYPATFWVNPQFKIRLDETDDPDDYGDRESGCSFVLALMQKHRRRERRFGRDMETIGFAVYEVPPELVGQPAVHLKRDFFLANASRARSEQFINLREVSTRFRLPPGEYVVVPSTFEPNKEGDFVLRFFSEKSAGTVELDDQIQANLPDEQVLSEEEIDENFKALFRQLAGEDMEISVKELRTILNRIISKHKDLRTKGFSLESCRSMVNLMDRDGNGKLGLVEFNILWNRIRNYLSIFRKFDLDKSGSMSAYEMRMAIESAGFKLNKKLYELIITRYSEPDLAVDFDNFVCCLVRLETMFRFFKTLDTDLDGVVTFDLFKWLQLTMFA
T1 sequence (P04632 1-268 partner): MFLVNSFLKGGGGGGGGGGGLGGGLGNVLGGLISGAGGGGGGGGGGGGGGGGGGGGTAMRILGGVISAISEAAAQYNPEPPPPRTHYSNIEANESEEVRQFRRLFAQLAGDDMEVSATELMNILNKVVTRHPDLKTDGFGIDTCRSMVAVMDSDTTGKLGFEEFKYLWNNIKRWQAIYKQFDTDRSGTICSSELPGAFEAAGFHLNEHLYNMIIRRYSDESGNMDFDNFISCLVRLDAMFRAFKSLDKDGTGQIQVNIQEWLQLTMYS

calpain II = target: T2, calpain II (Homo sapiens, UniProt P17655); conditions: cited from earlier work
T2 sequence (P17655 1-700): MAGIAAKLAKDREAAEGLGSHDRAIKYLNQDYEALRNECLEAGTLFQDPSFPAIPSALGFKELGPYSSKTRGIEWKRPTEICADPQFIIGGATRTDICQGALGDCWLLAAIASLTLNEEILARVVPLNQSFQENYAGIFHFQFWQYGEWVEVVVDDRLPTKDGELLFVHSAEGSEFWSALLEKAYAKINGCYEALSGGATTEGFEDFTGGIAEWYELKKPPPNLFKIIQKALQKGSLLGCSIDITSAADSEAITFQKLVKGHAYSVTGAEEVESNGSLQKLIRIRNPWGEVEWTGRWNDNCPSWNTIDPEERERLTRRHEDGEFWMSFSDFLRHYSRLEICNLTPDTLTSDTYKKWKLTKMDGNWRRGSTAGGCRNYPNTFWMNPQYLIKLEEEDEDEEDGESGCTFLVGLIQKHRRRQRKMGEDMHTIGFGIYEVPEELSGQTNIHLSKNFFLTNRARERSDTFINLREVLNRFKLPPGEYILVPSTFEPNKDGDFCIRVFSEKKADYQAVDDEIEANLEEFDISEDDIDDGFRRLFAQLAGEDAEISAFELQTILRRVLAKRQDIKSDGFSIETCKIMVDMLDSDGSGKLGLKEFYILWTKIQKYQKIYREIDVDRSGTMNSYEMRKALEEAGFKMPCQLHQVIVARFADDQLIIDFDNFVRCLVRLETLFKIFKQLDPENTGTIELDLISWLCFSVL
T2 sequence (P04632 1-268 partner): T1 sequence (P04632 1-268 partner)

cathepsin L = cathepsin L (Homo sapiens, UniProt P07711); conditions: cited from earlier work
Sequence of cathepsin L (P07711 114-333, species assumed): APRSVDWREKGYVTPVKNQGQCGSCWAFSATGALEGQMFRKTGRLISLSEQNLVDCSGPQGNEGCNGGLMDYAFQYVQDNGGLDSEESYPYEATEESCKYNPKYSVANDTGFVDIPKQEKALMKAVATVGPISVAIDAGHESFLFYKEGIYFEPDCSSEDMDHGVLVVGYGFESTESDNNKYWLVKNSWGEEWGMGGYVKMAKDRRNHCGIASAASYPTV

[1] = buffer; cited from earlier work
white blood cells [2] = experiment: Flow cytometry analysis of cell integrity; format: cell-based; conditions: EDTA blood mixed with test solution (5% v/v formamide)
Protocol: FIG. 6: Flow cytometry (FC) analysis of peripheral blood samples of one donor of example 1. Blood was directly drawn into BD EDTA tubes and PreAnalytiX PAXgene Blood RNA Tubes (PAXgene). […] Immediately after collection and treatment of samples, blood aliquots were analysed without incubation (0 h samples), while remaining samples were incubated at RT for one and three days (24 h and 72 h samples) prior to FC analysis. Shown per picture are the size (x-axis=forward scatter) and granularity (y-axis=sideward scatter) of 10,000 events per sample aliquot tested that contain signals of cells, cell debris and particles. The different populations of white blood cells that are distinguishable from each other in FC analysis (L, M, NG) and the cell-free fraction (D) are indicated by circles for the (+) control (EDTA) sample. They are as follows:
Where indicated, cell morphology was investigated by microscopic evaluation of blood smears and cell integrity by flow cytometry (FC).
The results obtained by microscopic analysis were verified by the analysis of cell integrity with flow cytometry. […] However, not all white blood cells may be equally well stabilized during longer stabilization periods. However, intact cells were detected and the detected cell populations are important for certain diagnostic applications which aim e.g. at the analysis of lymphocytes.

white blood cells [3] = experiment: Microscopic evaluation of blood smears (cell morphology/integrity); format: cell-based; conditions: EDTA blood, final 5% v/v formamide, 0.5× MOPS pH5.5, RT up to three days
[4] = tested on: transcripts of FOS, IL1B, IL8 and TP53; experiment: Transcript level stabilisation in blood samples, real time RT-PCR monoplex assays; format: cell-based; conditions: EDTA blood, 2% (w/v) N-methylacetamide, one and three days at RT
caspase-7 = target: T3, caspase-7 (Homo sapiens, UniProt P55210); conditions: cited from earlier work
T3 sequence (P55210 24-198 limits assumed): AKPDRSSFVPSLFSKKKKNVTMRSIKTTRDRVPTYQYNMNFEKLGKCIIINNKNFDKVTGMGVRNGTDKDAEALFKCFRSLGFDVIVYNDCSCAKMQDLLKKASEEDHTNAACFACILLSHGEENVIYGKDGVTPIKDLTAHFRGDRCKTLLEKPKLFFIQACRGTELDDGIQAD
T3 sequence (P55210 207-303 limits assumed): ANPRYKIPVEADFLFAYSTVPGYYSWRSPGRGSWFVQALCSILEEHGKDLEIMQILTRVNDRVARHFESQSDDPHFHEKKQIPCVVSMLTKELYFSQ

caspase-3 = target: T4, caspase-3 (Homo sapiens, UniProt P42574); conditions: cited from earlier work
T4 sequence (P42574 29-175 limits assumed): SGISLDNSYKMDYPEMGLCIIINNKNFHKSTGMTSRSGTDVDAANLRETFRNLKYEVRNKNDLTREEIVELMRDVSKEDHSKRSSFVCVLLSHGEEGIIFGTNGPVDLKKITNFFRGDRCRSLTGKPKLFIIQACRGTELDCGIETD
T4 sequence (P42574 176-277 limits assumed): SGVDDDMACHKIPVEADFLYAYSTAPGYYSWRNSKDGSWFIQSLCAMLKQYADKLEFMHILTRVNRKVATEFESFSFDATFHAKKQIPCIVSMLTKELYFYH

apoptosis = conditions: cited from earlier work
[5] = amide in different concentrations with 1 μM Quinoline-Val-Asp-CH2-OPH (caspase inhibitor)
[6] = amide alone in different concentrations, without caspase inhibitor

For `CCC(N)=O` [propanamide], the “increase in 18S rDNA in plasma (stabilization of extracellular nucleic acid population)” value (“increase in 18S rDNA in plasma” for short) (18S ribosomal DNA; [5]) was “significantly reduced increase in 18S rDNA”.

With `CCCC(N)=O` [butanamide] the “hemolysis of the red blood cells contained in the blood sample” value (red blood cells) was “prevents the hemolysis”, the “increase in 18S rDNA in plasma” value (18S ribosomal DNA; [6]) was “significantly reduced increase in 18S rDNA” and the “increase in 18S rDNA in plasma” value (18S ribosomal DNA; [5]) was “uniform stabilization results were obtained”.

In the case of Ac-Leu-Leu-[Nle]-aldehyde, the Ki (calpain I) is listed as 190 nM, the Ki (calpain II) is listed as 150 nM and the Ki (cathepsin L) is listed as 0.5 nM.

With `CC(N)=O` [acetamide] the “increase in 18S rDNA in plasma” value (18S ribosomal DNA; [5]) was “significantly reduced increase in 18S rDNA”.

For `N=c1sc2c(n1CC(=O)c1ccc([N+](=O)[O-])cc1)CCCC2` [Pifithrin-α, p-Nitro], the t1/2 [1] is listed as “biological systems (t1/2 = 8h in neuron culture medium at 37° C)”.

In the case of `NC=O` [formamide], the “lysis of lymphocytes and monocytes, flow cytometry” value (white blood cells [2]; RT up to three days) is reported as “not affected by lysis”, the “lysis of neutrophilic granulocytes, flow cytometry” value (white blood cells [2]; longer storage at RT) is reported as “Some lysis appeared to have occurred” and the “increase in 18S rDNA in plasma” value (18S ribosomal DNA; [6]) is reported as “significantly reduced increase in 18S rDNA”. The “increase in 18S rDNA in plasma” value (18S ribosomal DNA; [5]) was “uniform stabilization results were obtained” and the “white blood cell integrity, microscopy of blood smears” value (white blood cells [3]) was “did not act lytic on WBC”.

With `CNC(C)=O` [N-methylacetamide] the “stabilization of transcript levels of FOS, IL1B, IL8, TP53” value [4] was “effective in stabilizing transcript levels for up to three days” and the “increase in 18S rDNA in plasma” value (18S ribosomal DNA; [5]) was “significantly reduced increase in 18S rDNA”.

In the case of “Cbz-Leu-Leu-Tyr-CH2F [Calpain Inhibitor IV]”, the “k2 calpain II” value (calpain II; irreversible inhibitor) is listed as 28,900 M-1s-1). Also acts as an inhibitor of cathepsin L (k2 = and the “k2 cathepsin L” value (cathepsin L) is listed as 680,000 M-1s-1).

For `CNC=O` [N-methylformamide], the “increase in 18S rDNA in plasma” value (18S ribosomal DNA; [5]) was “significantly reduced increase in 18S rDNA”.

In the case of `COC[C@@H]1CCCN1S(=O)(=O)c1ccc2c(c1)C(=O)C(=O)N2` [Caspase-3/7 Inhibitor I], the Ki (caspase-7) is given as 170 nM and the Ki (caspase-3) is given as 60 nM.

In the case of Quinoline-Val-Asp-CH2-OPH [Q-VD-OPh], the “effectiveness in preventing apoptosis compared with Z-VAD-FMK” value (apoptosis) is given as “even more effective”.
